Laboratory results published in PMC10179972, “New Hybrid Tetrahydropyrrolo[3,2,1-ij]quinolin-1-ylidene-2-thioxothiazolidin-4-ones as New Inhibitors of Factor Xa and Factor XIa: Design, Synthesis, and In Silico and Experimental Evaluation” (Molecules, 2023).

How the values were obtained:
factor XIa = factor XIa (Homo sapiens, UniProt P03951); experiment: Inhibition of factor XIa, kinetics of hydrolysis of chromogenic substrate S2366; type: biochemical; conditions: for inhibition at 30 µM: 30 μM compound, factor XIa 0.8 nmol/L, S2366 200 μmol/L, pH 8.0, read-out: Percent Inhibition at 30 μM, XIa; for IC50: substrate S2366, buffer solution
Sequence of factor XIa (P03951 388-625 limits assumed): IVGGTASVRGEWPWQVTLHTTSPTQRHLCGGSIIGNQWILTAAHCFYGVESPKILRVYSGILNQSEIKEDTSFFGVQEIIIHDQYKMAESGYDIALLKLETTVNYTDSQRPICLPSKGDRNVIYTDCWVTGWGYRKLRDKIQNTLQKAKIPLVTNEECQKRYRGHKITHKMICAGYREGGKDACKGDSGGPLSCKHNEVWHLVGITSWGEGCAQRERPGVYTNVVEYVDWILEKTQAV
Sequence of factor XIa (P03951 19-387 partner limits assumed): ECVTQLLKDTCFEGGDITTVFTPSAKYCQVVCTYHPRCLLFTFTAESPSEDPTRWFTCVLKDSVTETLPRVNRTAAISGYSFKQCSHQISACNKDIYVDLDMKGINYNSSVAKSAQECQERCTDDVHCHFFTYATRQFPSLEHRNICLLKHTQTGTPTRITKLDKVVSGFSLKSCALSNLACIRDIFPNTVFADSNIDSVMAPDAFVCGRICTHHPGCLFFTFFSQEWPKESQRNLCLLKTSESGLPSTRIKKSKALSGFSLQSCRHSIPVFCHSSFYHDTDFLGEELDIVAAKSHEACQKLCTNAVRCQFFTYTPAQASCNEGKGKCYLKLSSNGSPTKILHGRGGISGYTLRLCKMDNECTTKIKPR
Protocol: Compounds 12, 14 and 16 were evaluated for their anticoagulant activity against factors Xa and Xia, and the results are presented in Table 1. For the best Xa and XIa inhibitors, additional measurements were performed to determine the IC50 values. We measured the kinetics of the hydrolysis of the specific substrates S2765 or S2366 by factors Xa and XIa, respectively, in the buffer solution and in the presence of various concentrations of compounds.
(§1) A specific low-molecular-weight chromogenic substrate, S2765 (Z-D-Arg-Gly-Arg-pNA·2HCl), was used in the case of factor Xa, while the substrate S2366 (pyroGlu-Pro-ArgpNA·HCl) (both substrates from Chromogenix, USA) was used for factor XIa.
(§2) A buffer containing 140 mM NaCl, 20 mM HEPES, and 0.1% PEG 6000 (pH 8.0) was placed in the wells of a 96-well plate, followed by the addition of factor Xa (final concentration, 2.5 nmol·L^–1) or XIa (final concentration 0.8 nmol·L^–1), the substrate S2765 (final concentration, 200 μmol·L^–1) or S2366 (final concentration, 200 μmol·L^–1), and a solution of the test compound in DMSO (final concentration, 30 μmol·L^–1; the DMSO content in the well was no more than 2%). The kinetics of the formation of p-nitroaniline were measured using a THERMOmax Microplate Reader (Molecular Devices Corporation, USA) using the absorption of light with a wavelength of 405 nm. The initial rate of substrate degradation was determined from the initial slope of the 4-nitroaniline-formation curve. The rate of substrate degradation by the enzyme in the presence of the inhibitor was expressed as a percentage relative to the rate of substrate degradation in the absence of the inhibitor. The data obtained were processed using GraphPad Prism and OriginPro 8 software.

factor Xa = target: T1, factor Xa (Homo sapiens, UniProt P00742); experiment: Inhibition of factor Xa, kinetics of hydrolysis of chromogenic substrate S2765; type: biochemical; conditions: for inhibition at 30 µM: 30 μM compound, factor Xa 2.5 nmol/L, S2765 200 μmol/L, pH 8.0, read-out: Percent Inhibition at 30 μM, Xa; for IC50: substrate S2765, buffer solution
T1 construct: followed by the addition of factor Xa (final concentration, 2.5 nmol·L^–1)
T1 sequence (P00742 235-488 limits assumed): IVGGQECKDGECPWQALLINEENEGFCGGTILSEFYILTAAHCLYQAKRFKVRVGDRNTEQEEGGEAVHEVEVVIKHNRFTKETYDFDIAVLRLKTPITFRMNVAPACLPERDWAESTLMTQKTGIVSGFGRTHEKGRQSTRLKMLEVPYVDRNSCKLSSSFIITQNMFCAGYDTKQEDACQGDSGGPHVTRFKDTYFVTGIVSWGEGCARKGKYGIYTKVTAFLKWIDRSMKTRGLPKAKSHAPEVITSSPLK
T1 sequence (P00742 41-179 partner limits assumed): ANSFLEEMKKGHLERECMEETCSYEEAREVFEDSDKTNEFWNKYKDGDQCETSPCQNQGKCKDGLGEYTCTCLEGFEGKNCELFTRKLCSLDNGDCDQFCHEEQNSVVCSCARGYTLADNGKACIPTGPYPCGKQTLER
Protocol: We measured the kinetics of the hydrolysis of the specific substrates S2765 or S2366 by factors Xa and XIa, respectively, in the buffer solution and in the presence of various concentrations of compounds.
as §1
as §2, with “The kinetics of the formation of p-nitroaniline were measured using a THERMOmax Microplate Reader (Molecular Devices Corporation, USA) using the absorption of light with a wavelength of 405 nm.” left out

Row | inhibition at 30 µM (factor XIa) [%] | inhibition at 30 µM (factor Xa) [%] | IC50 (factor XIa) [µM] | IC50 (factor Xa) [µM] | Structure (SMILES)
1 | 77 | 89 | – | – | CCN1C(=O)/C(=C2/C(=O)N3c4c2cccc4C(C)(c2ccccc2)CC3(C)C)SC1=S (stereo not drawn) [12j, (Z)-3-Ethyl-2-thioxo-5-(4,4,6-trimethyl-2-oxo-6-phenyl-5,6-dihydro-4H-pyrrolo[3,2,1-ij]quinolin-1(2H)-ylidene)thiazolidin-4-one]
2 | 99 | 99 | 5.24 ± 0.29 | 2.85 ± 0.23 | CC1(c2ccc(Cl)cc2)CC(C)(C)N2C(=O)/C(=C3\SC(=S)NC3=O)c3cc(F)cc1c32 (stereo not drawn) [12k, (Z)-5-(6-(4-Chlorophenyl)-8-fluoro-4,4,6-trimethyl-2-oxo-5,6-dihydro-4H-pyrrolo[3,2,1-ij]quinolin-1(2H)-ylidene)-2-thioxothiazolidin-4-one]
3 | 98 | 99 | 5.03 ± 0.18 | 3.7 ± 0.03 | CC1(c2ccccc2)CC(C)(C)N2C(=O)/C(=C3\SC(=S)NC3=O)c3cc(F)cc1c32 (stereo not drawn) [12g, (Z)-5-(8-Fluoro-4,4,6-trimethyl-2-oxo-6-phenyl-5,6-dihydro-4H-pyrrolo[3,2,1-ij]quinolin-1(2H)-ylidene)-2-thioxothiazolidin-4-one]
4 | 91 | 94 | 9.41 ± 0.51 | 2.6 ± 0.5 | CC1(C)CC2(CCCCC2)N2C(=O)/C(=C3\SC(=S)NC3=O)c3cccc1c32 [12n, (Z)-5-(6′,6′-Dimethyl-2′-oxo-5′,6′-dihydrospiro[cyclohexane-1,4′-pyrrolo[3,2,1-ij]quinolin]-1′(2′H)-ylidene)-2-thioxothiazolidin-4-one]
5 | 72 | 58 | – | – | CC1CC(C)(C)N2C(=O)/C(=C3\SC(=S)NC3=O)c3cc(OC(=O)c4ccccc4)cc1c32 (stereo not drawn) [12c, (Z)-4,4,6-Trimethyl-2-oxo-1-(4-oxo-2-thioxothiazolidin-5-ylidene)-1,2,5,6-tetrahydro-4H-pyrrolo[3,2,1-ij]quinolin-8-yl benzoate]
6 | 86 | 59 | – | – | Cc1cc2c3c(c1)C(C)(c1ccc(Cl)cc1)CC(C)(C)N3C(=O)/C2=C1\NC(=S)NC1=O (stereo not drawn) [16e, (Z)-6-(4-Chlorophenyl)-4,4,6,8-tetramethyl-1-(5-oxo-2-thioxoimidazolidin-4-ylidene)-5,6-dihydro-4H-pyrrolo[3,2,1-ij]quinolin-2(1H)-one]
7 | 96 | 75 | 5.04 ± 0.33 | 3.44 ± 0.06 | CC1(c2ccccc2)CC(C)(C)N2C(=O)/C(=C3\SC(=S)NC3=O)c3cc(I)cc1c32 (stereo not drawn) [12i, (Z)-5-(8-Iodo-4,4,6-trimethyl-2-oxo-6-phenyl-5,6-dihydro-4H-pyrrolo[3,2,1-ij]quinolin-1(2H)-ylidene)-2-thioxothiazolidin-4-one]
8 | 91 | 47 | 4.32 ± 0.06 | – | CC1CC2(CCCCCC2)N2C(=O)/C(=C3\SC(=S)NC3=O)c3cc(F)cc1c32 (stereo not drawn) [12q, (Z)-5-(8′-Fluoro-6′-methyl-2′-oxo-5′,6′-dihydrospiro[cycloheptane-1,4′-pyrrolo[3,2,1-ij]quinolin]-1′(2′H)-ylidene)-2-thioxothiazolidin-4-one]
9 | 2 | 17 | – | – | CC1(c2ccccc2)CC(C)(C)N2C(=O)/C(=C3\NC(=S)NC3=O)c3cc(F)cc1c32 (stereo not drawn) [16d, (Z)-8-Fluoro-4,4,6-trimethyl-1-(5-oxo-2-thioxoimidazolidin-4-ylidene)-6-phenyl-5,6-dihydro-4H-pyrrolo[3,2,1-ij]quinolin-2(1H)-one]
10 | 57 | 45 | – | – | CC1(c2ccccc2)CC(C)(C)N2C(=O)/C(=C3\NC(=S)NC3=O)c3cccc1c32 (stereo not drawn) [16c, (Z)-4,4,6-Trimethyl-1-(5-oxo-2-thioxoimidazolidin-4-ylidene)-6-phenyl-5,6-dihydro-4H-pyrrolo[3,2,1-ij]quinolin-2(1H)-one]
11 | 98 | 63 | 3.79 ± 0.03 | 2.35 ± 0.22 | COc1ccccc1C(=O)Oc1cc2c3c(c1)C(C)CC(C)(C)N3C(=O)/C2=C1\SC(=S)NC1=O (stereo not drawn) [12d, (Z)-4,4,6-Trimethyl-2-oxo-1-(4-oxo-2-thioxothiazolidin-5-ylidene)-1,2,5,6-tetrahydro-4H-pyrrolo[3,2,1-ij]quinolin-8-yl 2-methoxybenzoate]
12 | 22 | 94 | – | 9.41 ± 0.35 | CC1CC(C)(C)N2C(=O)/C(=C3\SC(=S)NC3=O)c3cccc1c32 (stereo not drawn) [12a, (Z)-2-Thioxo-5-(4,4,6-trimethyl-2-oxo-5,6-dihydro-4H-pyrrolo[3,2,1-ij]quinolin-1(2H)-ylidene)thiazolidin-4-one]
13 | 3 | 36 | – | – | C#CCN1C(=O)/C(=C2/C(=O)N3c4c2cc(F)cc4C(C)(c2ccccc2)CC3(C)C)SC1=S (stereo not drawn) [14a, (Z)-5-(8-Fluoro-4,4,6-trimethyl-2-oxo-6-phenyl-5,6-dihydro-4H-pyrrolo[3,2,1-ij]quinolin-1(2H)-ylidene)-3-(prop-2-yn-1-yl)-2-thioxothiazolidin-4-one]
14 | 94 | 49 | 3.74 ± 0.33 | – | COc1cc(C(=O)Oc2cc3c4c(c2)C(C)CC(C)(C)N4C(=O)/C3=C2\SC(=S)NC2=O)cc(OC)c1OC (stereo not drawn) [12e, (Z)-4,4,6-Trimethyl-2-oxo-1-(4-oxo-2-thioxothiazolidin-5-ylidene)-1,2,5,6-tetrahydro-4H-pyrrolo[3,2,1-ij]quinolin-8-yl 3,4,5-trimethoxybenzoate]
15 | 12 | 81 | – | 3.53 ± 0.08 | CC1CC(C)(C)N2C(=O)/C(=C3\SC(=S)NC3=O)c3cc(I)cc1c32 (stereo not drawn) [12b, (Z)-5-(8-Iodo-4,4,6-trimethyl-2-oxo-5,6-dihydro-4H-pyrrolo[3,2,1-ij]quinolin-1(2H)-ylidene)-2-thioxothiazolidin-4-one]
16 | 6 | 2 | – | – | CCOc1cc2c3c(c1)C(C)CC(C)(C)N3C(=O)/C2=C1\NC(=S)NC1=O (stereo not drawn) [16a, (Z)-8-Ethoxy-4,4,6-trimethyl-1-(5-oxo-2-thioxoimidazolidin-4-ylidene)-5,6-dihydro-4H-pyrrolo[3,2,1-ij]quinolin-2(1H)-one]
17 | 77 | 67 | 12.2 ± 0.5 | 3.03 ± 0.18 | CC1CC2(CCCC2)N2C(=O)/C(=C3\SC(=S)NC3=O)c3cc(F)cc1c32 (stereo not drawn) [12p, (Z)-5-(8′-Fluoro-6′-methyl-2′-oxo-5′,6′-dihydrospiro[cyclopentane-1,4′-pyrrolo[3,2,1-ij]quinolin]-1′(2′H)-ylidene)-2-thioxothiazolidin-4-one]
18 | 95 | 78 | 4.3 ± 0.06 | 2.87 ± 0.21 | CC1(c2ccc(Cl)cc2)CC(C)(C)N2C(=O)/C(=C3\SC(=S)NC3=O)c3cc(I)cc1c32 (stereo not drawn) [12l, (Z)-5-(6-(4-Chlorophenyl)-8-iodo-4,4,6-trimethyl-2-oxo-5,6-dihydro-4H-pyrrolo[3,2,1-ij]quinolin-1(2H)-ylidene)-2-thioxothiazolidin-4-one]
19 | 98 | 73 | 3.73 ± 0.03 | 2.28 ± 0.23 | CC1(c2ccccc2)CC(C)(C)N2C(=O)/C(=C3\SC(=S)NC3=O)c3cc(Br)cc1c32 (stereo not drawn) [12h, (Z)-5-(8-Bromo-4,4,6-trimethyl-2-oxo-6-phenyl-5,6-dihydro-4H-pyrrolo[3,2,1-ij]quinolin-1(2H)-ylidene)-2-thioxothiazolidin-4-one]
20 | 15 | 48 | – | – | Cc1cc2c3c(c1)C(C)CC1(CCCCC1)N3C(=O)/C2=C1\SC(=S)NC1=O (stereo not drawn) [12o, (Z)-5-(6′,8′-Dimethyl-2′-oxo-5′,6′-dihydrospiro[cyclohexane-1,4′-pyrrolo[3,2,1-ij]quinolin]-1′(2′H)-ylidene)-2-thioxothiazolidin-4-one]
